Test results reported in patent US4127446A, “Process for producing antibiotics mimosamycin and chlorocarcins A, B and C” (priority 1975, dated 1978).
Values after ≈ are worked out from the molar mass of the structure shown.

Tested on: Mycobacterium tuberculosis SMR
Assay: Antimicrobial activity of mimosamycin against tubercle bacilli (Table 4)
Type: cell-based
Details: 672 h

In the case of COC1=C(C)C(=O)c2cc(=O)n(C)cc2C1=O [Mimosamycin], the MIC is reported as 1.56 µg/mL (≈ 6.69 µM).
